1 molecule from patent US20240148679A1, “METHODS AND COMPOSITIONS RELATED TO TREATMENT AND PREVENTION OF CANCER BY INHIBITION OF DGAT1 AND DGAT2” (Ohio State Innovation Foundation, priority 2019, published 2024) can be followed below.

The subject of one assay is U251 cells. Put plainly: Mitochondrial membrane potential (Rhodamine 123). Type of assay: cell-based, human. The settings on record: 20 μg/ml, 24 hr. As to the method:
(A, B) Transmission electron microscopy analysis of the mitochondrial structure in U251cells treated with the DGAT1 inhibitor A-922500 (20 μg/ml) or DGAT2 inhibitor PF-06424439 (20 μg/ml) for 24 hr (A) or infected with shRNA-expressing lentivirus against DGAT1 for 48 hr (B). Scale bar, 500 nm. Mitochondria are indicated by arrows. (C) Representative fluorescence images of mitochondria in U251 cells treated with the DGAT1 inhibitor or DGAT2 inhibitor. Mitochondria were stained with MitoTracker Red. LDs were stained with BODIPY 493/503. Nuclei were stained with Hoechst 33342. Scale bar, 10 μm. (D) Representative fluorescence images of mitochondria in GBM cells infected with shRNA-expressing lentivirus against DGAT1 or DGAT2 for 48 hr. Mitochondria were stained with MitoTracker Red. LDs were stained with BODIPY 493/503. Nuclei were stained with Hoechst 33342. Scale bar, 10 μm. (E, F) Representative fluorescence image analysis of mitochondrial membrane potential stained with Rhodamine123 in U251 cells treated with the DGAT1 inhibitor A-922500 (20 μg/ml) for 24 hr or infected with shRNA-expressing lentivirus against DGAT1 for 48 hr. Nuclei were stained with Hoechst 33342. Scale bar, 10 μm. Rhodamine123 staining was quantified by ImageJ software in more than 100 cells. Statistical significance was determined by s t-test for inhibitor treatment or one-way ANOVA for shRNA knockdown. *P<0.0001. […]

The subject of a further assay is BIP and CHOP. In words: Western blot of ER stress markers. It is filed as cell-based, human. As to conditions: 20 μg/ml, 24 hours, GBM cells. As to the method:
(A) Western blotting analysis of ER stress protein markers BIP and CHOP expression in GBM cells treated with the DGAT1 inhibitor A-922500 (20 μg/ml) for 24 hr. (B) Percentage of cell death in U251 cells treated with the ER stress pathway PERK inhibitor GSK2656157 or IRE1a inhibitor 4μ8C, alone or in combination with the DGAT1 inhibitor A-922500 (20 μg/ml) for 3 days. […] (C) Western blotting analysis of expression of ER stress protein markers BIP and CHOP in GBM cells infected with shRNA-expressing lentivirus against DGAT1 for 48 hr.
Western Blotting Cells were lysed by RIPA buffer (Cat #NC9484499; Fisher Scientific) containing protease inhibitor cocktail (Cat #11836170001; Roche) and phosphatase inhibitor (Cat #04906845001; Roche). The proteins were separated by using 12% SDS-PAGE, and transferred onto a Hybond ECL nitrocellulose membrane (Cat #RPN3032D; GE Healthcare).
After blocking for 1.5 h in 5% nonfat milk diluted by Tris-buffered saline containing 0.1% Tween 20, the membranes were incubated with various primary antibodies, followed by secondary antibodies conjugated to horseradish peroxidase.

Consider `O=C(Nc1ccccc1)Nc1ccc(-c2ccc(C(=O)[C@@H]3CCC[C@H]3C(=O)O)cc2)cc1` [A-922500], for which, in the assay on U251 cells, the mitochondria membrane potential entry is reported as “significantly reduced”. Moreover, the “protein levels of BIP and CHOP (ER stress)” value with BIP and CHOP is recorded as “induces ER stress”; in the assay with BIP and CHOP (listed as A922500), “increased”.
